From the supplement of paper PMC6461962

Tests used:
[1] = system: Pseudomonas fluorescens FW300-N2E2
How it was run: (§1)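 Growth was read as OD600 at 24 h, or at 48 h for R2A strain comparisons, after washed cells at a final OD600 of 0.02 (80 µL) were added to 384-well plates holding serially diluted inorganic ion salts or equimolar nitrilotriacetic acid complexes. Aerobic plates were shaken at 700 rpm at 30 °C, but anaerobic plates were not. IC50 was calculated with the drc R package from at least two biological replicate curves, scaled between water and growth-blocking antibiotic controls and excluding wells with precipitate.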

[2] = system: Rhodanobacter sp. FW104-10B01
How it was run: as §1

[3] = medium / electron acceptor: N2E2 Glucose/aerobic
[4] = medium / electron acceptor: N2E2 Glucose/aerobic 0.25xMinerals
[5] = medium / electron acceptor: N2E2 Glucose/aerobic (2)
[6] = medium / electron acceptor: N2E2 KB/aerobic
[7] = medium / electron acceptor: N2E2 LB/aerobic
[8] = medium / electron acceptor: N2E2 LB/aerobic (2)
[9] = medium / electron acceptor: N2E2 LB/nitrate
[10] = medium / electron acceptor: N2E2 Lactate/aerobic
[11] = medium / electron acceptor: N2E2 R2A/aerobic
[12] = medium / electron acceptor: 10B01 R2A/aerobic
[13] = medium / electron acceptor: 10B01 R2A/nitrate

Structure (SMILES)	IC50 growth inhibition [1, 3] [mM]	IC50 growth inhibition [1, 4] [mM]	IC50 growth inhibition [1, 5] [mM]	IC50 growth inhibition [1, 6] [mM]	IC50 growth inhibition [1, 7] [mM]	IC50 growth inhibition [1, 8] [mM]	IC50 growth inhibition [1, 9] [mM]	IC50 growth inhibition [1, 10] [mM]	IC50 growth inhibition [1, 11] [mM]	IC50 growth inhibition [2, 12] [mM]	IC50 growth inhibition [2, 13] [mM]
[O-][Cl+2]([O-])O [Sodium Chlorate]	9.21	8.75	0.387	5.02	24.5	54.4	4.33	15.7	45.9	355	< 0.244
[Cl-].[Na+] [Sodium Chloride]	699	708	603	660	708	718	622	707	671	708	545
[O-][Cl+]O [Sodium Chlorite]	< 0.00244	< 0.00244	< 0.00244	< 0.00244	0.0105	< 0.00244	0.00287	< 0.00244	0.00662	> 5	> 5
O.O.O.O.O.O.O.O=[As]([O-])([O-])O.[Na+].[Na+] [Sodium arsenate dibasic heptahydrate]	< 0.244	< 0.244	< 0.244	< 0.244	< 0.244	< 0.244	5.13	< 0.244	0.874	> 500	> 500
OCl [Sodium hypochlorite]	> 5	> 5	2.28	> 5	> 5	> 5	0.534	> 5	3.32	> 5	> 5
O=P[O-].[Na+] [Sodium hypophosphite monohydrate]	354	451	146	380	354	> 500	306	354	> 500	354	171
O=[Si](O)O [Sodium metasilicate]	< 0.244	< 0.244	< 0.244	< 0.244	< 0.244	< 0.244	< 0.244	< 0.244	< 0.244	< 0.244	< 0.244
[Na+].[O]=[V](=[O])[O-] [Sodium metavanadate]	0.0793	0.432	0.0997	< 0.0244	3.26	13.4	6.94	2.34	8.62	> 50	> 50
[Na+].[Na+].[O]=[Mo](=[O])([O-])[O-] [Sodium molybdate]	20.3	2.62	3.39	337	369	354	214	162	231	354	262
O=[N+]([O-])[O-].[Na+] [Sodium nitrate]	275	> 500	324	354	354	383	> 500	354	400	> 500	> 500
O=NO [Sodium nitrite]	17.3	6.63	3.89	15.3	22.8	41.6	14.8	23	8.81	> 50	> 50
[O-][Cl+3]([O-])([O-])O [Sodium perchlorate monohydrate]	67.2	356	117	82	95	106	69.8	235	89.4	354	5.54
[O-][I+3]([O-])([O-])O [Sodium periodate]	5.52	2.35	1.56	0.326	0.813	2.35	0.146	27.4	0.772	0.101	0.0825
O=P([O-])(O)O.[Na+] [Sodium phosphate monobasic monohydrate]	50.2	> 500	73.8	308	307	354	2.25	30.3	15.7	354	128
OP(O)O [Sodium phosphite dibasic pentahydrate]	< 0.244	< 0.244	< 0.244	2.03	354	354	118	< 0.244	309	> 500	197
O=P(O)(O)OP(=O)(O)O [Sodium pyrophosphate dibasic]	29.4	0.848	0.226	1.78	36.1	25.4	4.34	> 50	2.35	8.54	0.854
O=[Se](=O)([O-])[O-].[Na+].[Na+] [Sodium selenate]	< 0.244	< 0.244	< 0.244	290	354	300	189	< 0.244	62.5	251	163
O=[Se]([O-])[O-].[Na+].[Na+] [Sodium selenite pentahydrate]	< 0.244	< 0.244	< 0.244	< 0.244	< 0.244	< 0.244	250	< 0.244	< 0.244	250	112
O.O.O.O.O.O.O.O.O.O.O=S(=O)([O-])[O-].[Na+].[Na+] [Sodium sulfate]	356	> 500	> 500	> 500	455	> 500	311	384	183	354	317
OP(O)(O)=S [Sodium thiophosphate tribasic hydrate]	> 50	> 50	> 50	42.2	> 50	33.1	21	> 50	> 50	> 50	> 50
O=S(O)(O)=S [Sodium thiosulfate]	318	> 500	386	319	363	360	185	355	360	> 500	57.6
O.O.[Na+].[Na+].[O]=[W](=[O])([O-])[O-] [Sodium tungstate dihydrate]	< 0.244	< 0.244	3.31	1.17	0.539	20.5	21.3	< 0.244	237	> 500	> 500
